# “Also recorded” adds a separate entry of the source. Where two headings read alike, the source gives them in different places.
# Tests used:
# [1] = test system: SSS-stimulated field responses recorded in the trigeminal nucleus caudalis; test: SSS-stimulated trigeminal field response (in vivo model of migraine); set-up: species or system rat
# Experimental: (§1) Male Long-Evans rats (Harlan, 250-400 g) were used in the experiments described in this example. Prior to testing, rats were allowed access to food and water ad libitum and were maintained on a 12:12 hours light/dark cycle. Rats were group housed in an Association for Assessment and Accreditation of Laboratory Animal Care (A.A.A.L.A.C.) accredited facility and cared for in strict compliance with all applicable regulations.
# SSS stimulation and recording were performed in a manner consistent with previously published methods using cat (K. L. Hoskin et al., 1996, Brain, 119:101-108) and rat (M. J. Cumberbatch et al., 1998, Eur. J. Pharmacol., 362:43-46; and M. J. Cumberbatch et al., 1999, Br. J. Pharmacol., 126:1478-1486) animal models. Rats were anesthetized with 1.2 g/kg i.p. urethane (#U-2500, Sigma Chemical Company, St. Louis, Mo.) and given supplemental urethane as needed. In the case of intravenous (i.v.) drug administration (e.g., (+)-3-[5-Chloro-2-[(2,2,2-trifluoroethoxy)phenyl]-1,3-dihydro-3-fluoro-6-(trifluoromethyl)-2H-indol-2-one), the jugular veins of the rats were cannulated using sylastic tubing pre-filled with vehicle. […]
# Stimulated field responses were recorded in the trigeminal nucleus caudalis using Teflon coated stainless-steel microelectrodes (5 MΩ impedance, Frederick Haer, Brunswick, Me.) and amplified and filtered (0.1 Hz-10 kHz) using a differential amplifier (#IsoDAM8, World Precision Instruments, Sarasota, Fla.). […]
# Three baseline measures (i.e., 100% of control), each consisting of 100 evoked trigeminal field potentials, were sampled prior to drug injection. […] Following injection of test substances, data were sampled for 1 hour, averaged into 5 minute bins (90 evoked potentials) and expressed as a percent change from average baseline values for the purposes of statistical analysis. Data were analyzed using repeated measures analyses of variance comparing vehicle and drug effects. […]
# [2] = test system: SSS-stimulated trigeminal activity; conditions: cited from earlier work
# [3] = test system: cortical spreading depression; test: Cortical spreading depression elicited by KCl application; format: in vivo; conditions: rat, 0.1, 1.0, 5.0, 10.0 and 30.0 mg/kg i.v. vs vehicle (overall ANOVA p<0.001)
# Experimental: as §1
# Rats were anesthetized with urethane anesthesia (1.2 g/kg i.p.), implanted with a jugular vein catheter for drug injections, and placed in a stereotaxic frame. The skull was exposed and a small hole (approximately 2 mm by 3 mm) was drilled in the skull rostral to the lambdoid suture using a microdrill and steel burr creating a “well”. The dura was disrupted and a drop of mineral oil was placed in this well. Crystalline KCl was later applied to the well for 10 minutes to elicit spreading depression. Typically, this application produced a long-lasting series of spreading depressions.
# Two additional holes were placed in the skull unilaterally at 4 and 8 mm rostral to the application hole. Silver wire electrodes were placed in these latter holes and secured to the skull using acrylic cement. […]
# Differences between control and drug conditions were assessed using analyses of variance (ANOVA) and appropriate post-hoc analyses. […]
# murine KCNQ2 (mKCNQ2) = murine KCNQ2 (mKCNQ2) (Mus musculus, UniProt Q9Z351); test: Two-electrode voltage clamp, Xenopus oocyte expressed mKCNQ2-mediated outward currents; format: cell-based; conditions: 10 μM, Xenopus oocytes
# Sequence of murine KCNQ2 (mKCNQ2) (Q9Z351 whole entry): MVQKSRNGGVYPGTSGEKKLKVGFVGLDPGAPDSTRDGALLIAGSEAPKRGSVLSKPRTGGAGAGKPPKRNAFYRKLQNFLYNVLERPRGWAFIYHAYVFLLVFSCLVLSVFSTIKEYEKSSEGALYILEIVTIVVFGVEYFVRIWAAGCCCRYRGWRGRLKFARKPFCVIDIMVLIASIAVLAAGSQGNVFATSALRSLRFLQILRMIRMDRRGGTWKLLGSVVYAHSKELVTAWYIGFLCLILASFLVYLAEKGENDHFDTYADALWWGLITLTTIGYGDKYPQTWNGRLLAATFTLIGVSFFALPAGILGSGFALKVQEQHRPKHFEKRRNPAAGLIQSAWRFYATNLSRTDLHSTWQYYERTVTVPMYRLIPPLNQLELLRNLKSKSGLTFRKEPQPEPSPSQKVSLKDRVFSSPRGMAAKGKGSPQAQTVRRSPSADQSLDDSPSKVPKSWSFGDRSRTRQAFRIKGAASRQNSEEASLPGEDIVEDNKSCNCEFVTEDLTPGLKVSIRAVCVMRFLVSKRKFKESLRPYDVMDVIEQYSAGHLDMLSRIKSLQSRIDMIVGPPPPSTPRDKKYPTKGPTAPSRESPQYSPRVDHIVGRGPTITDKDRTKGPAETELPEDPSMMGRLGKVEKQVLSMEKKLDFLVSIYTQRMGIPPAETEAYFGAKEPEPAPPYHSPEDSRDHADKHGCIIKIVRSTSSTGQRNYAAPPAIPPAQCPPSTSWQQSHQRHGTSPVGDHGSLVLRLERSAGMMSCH
# Experimental: (§2) The ability of the compounds described herein to open KCNQ channels and increase whole-cell outward (K^+) KCNQ-mediated currents was assessed under voltage-clamp conditions by determining their ability to increase cloned […] KCNQ2 (mKCNQ2)-mediated, heteromultimeric murine KCNQ2/3 (mKCNQ2/3)-mediated, and heterologous human KCNQ5 (hKCNQ5)-mediated outward currents expressed in Xenopus oocytes. Oocytes were prepared and injected using standard techniques; each oocyte was injected with approximately 50 nl of mKCNQ2, or hKCNQ5 cRNA. In the case of mKCNQ2/3 heteromultimeric channel expression, equal amounts (25-50 nL) of each cRNA were co-injected.
# (§3) Following injection, oocytes were maintained at 17° C. in ND96 medium containing (in mM): NaCl, 90; KCl, 1.0; CaCl2, 1.0; MgCl2, 1.0; HEPES, 5.0; pH 7.5. Horse serum (5%) and penicillin/streptomycin (5%) were added to the incubation medium. Recording commenced 2-6 days following mRNA injection. […]
# (§4) Frog (Xenopus laevis) oocytes were impaled with electrodes (1-2 MΩ) and standard 2-electrode voltage clamp techniques were employed to record whole-cell membrane currents. […] Compounds were evaluated at a single concentration (10 or 20 μM), and the effect of the selected compounds of Formula I on KCNQ2 current was expressed as the percent of control current. […]
# human KCNQ5 (hKCNQ5) = human KCNQ5 (hKCNQ5) (Homo sapiens, UniProt Q9NR82); test: Two-electrode voltage clamp, Xenopus oocyte-expressed hKCNQ5-mediated outward currents; format: cell-based; conditions: Xenopus oocytes, n=3, single concentration (10 or 20 μM)
# Sequence of human KCNQ5 (hKCNQ5) (Q9NR82 whole entry): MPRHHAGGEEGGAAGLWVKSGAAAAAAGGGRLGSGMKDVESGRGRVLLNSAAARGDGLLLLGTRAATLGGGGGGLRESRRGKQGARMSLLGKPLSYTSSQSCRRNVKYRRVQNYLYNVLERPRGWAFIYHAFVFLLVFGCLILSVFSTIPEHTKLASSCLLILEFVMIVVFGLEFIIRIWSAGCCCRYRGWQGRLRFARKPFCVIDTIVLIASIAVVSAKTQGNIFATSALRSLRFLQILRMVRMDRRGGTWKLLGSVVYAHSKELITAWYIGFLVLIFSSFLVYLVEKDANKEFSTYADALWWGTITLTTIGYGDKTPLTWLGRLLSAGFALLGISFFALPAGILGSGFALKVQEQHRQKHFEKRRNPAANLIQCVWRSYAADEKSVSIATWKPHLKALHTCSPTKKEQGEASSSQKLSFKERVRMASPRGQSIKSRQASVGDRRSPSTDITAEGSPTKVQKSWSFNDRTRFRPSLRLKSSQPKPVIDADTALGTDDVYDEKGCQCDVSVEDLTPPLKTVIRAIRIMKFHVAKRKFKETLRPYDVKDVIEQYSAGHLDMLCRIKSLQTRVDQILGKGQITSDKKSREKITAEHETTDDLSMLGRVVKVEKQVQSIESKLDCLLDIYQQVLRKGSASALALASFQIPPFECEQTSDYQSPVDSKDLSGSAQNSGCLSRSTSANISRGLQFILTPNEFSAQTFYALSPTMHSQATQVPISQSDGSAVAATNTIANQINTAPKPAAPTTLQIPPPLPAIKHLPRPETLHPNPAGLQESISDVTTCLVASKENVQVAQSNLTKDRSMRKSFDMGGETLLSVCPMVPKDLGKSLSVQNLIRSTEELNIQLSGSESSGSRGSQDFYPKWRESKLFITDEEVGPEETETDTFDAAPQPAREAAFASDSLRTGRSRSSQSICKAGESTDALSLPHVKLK
# Experimental: as §2, §3, §4
smiles,measurement,setting,value
"O=C(NCc1ccc(C(F)(F)F)cc1)c1cnc(N2CCCC2)nc1C(F)(F)F [Compound 2, 2-(Pyrrolidin-1-yl)-4-(trifluoromethyl)-N-[[4-(trifluoromethyl)phenyl]methyl]pyrimidine-5-carboxamide]",effect on SSS stimulation evoked trigeminal field potential amplitude,"[1]; urethane anesthetized rats, 1 mg/kg i.v.",statistically significant (p=0.005) decrease
CN1C[C@H](C(=O)N[C@]2(C)O[C@@]3(O)[C@@H]4CCCN4C(=O)[C@H](Cc4ccccc4)N3C2=O)C[C@@H]2c3cccc4[nH]cc(c34)C[C@H]21 [dihydroergotamine],physiological measures of SSS-stimulated trigeminal activity,[2]; literature reports,decrease
"O=C1Nc2cc(C(F)(F)F)ccc2C1(F)c1cc(Cl)ccc1OCC(F)(F)F (single isomer, unassigned; (+)) [Compound 1]",decrease in trigeminal field potentials from control amplitude,"[1]; rat, 50 mg/kg i.v. (highest dose)",86.7±1.67%
same,effect on SSS-stimulated trigeminal field response,"[1]; rat, doses 0.1, 1.0, 10.0, 30.0 and 50.0 mg/kg i.v., vs vehicle (p<0.01 in all cases; overall ANOVA p<0.001)",dose-dependent reduction; also recorded: significant reduction; also recorded: dose-dependent decrease
same,number of spreading depressions produced by a single 10 min KCl application,[3],significant reduction
same,increase of KCNQ2 current over the KCNQ2 current in controls,murine KCNQ2 (mKCNQ2),> 150%
same,"human KCNQ5-mediated outward currents, % of control",human KCNQ5 (hKCNQ5),157.4+/−6.0 % of control
CN(C)CCc1c[nH]c2ccc(C[C@H]3COC(=O)N3)cc12 [zolmitriptan],physiological measures of SSS-stimulated trigeminal activity,[2]; literature reports,decrease
CN(C)CCc1c[nH]c2ccc(Cn3cncn3)cc12 [rizatriptan],physiological measures of SSS-stimulated trigeminal activity,[2]; literature reports,decrease
CNS(=O)(=O)CCc1ccc2[nH]cc(C3CCN(C)CC3)c2c1 [naratriptan],physiological measures of SSS-stimulated trigeminal activity,[2]; literature reports,decrease
CNS(=O)(=O)Cc1ccc2[nH]cc(CCN(C)C)c2c1 [sumatriptan],physiological measures of SSS-stimulated trigeminal activity,"[2]; following blood-brain-barrier disruption, literature report",decrease

# — patent publication US6855829B2, “3-fluoro-2-oxindole modulators of KCNQ potassium channels and use thereof in treating migraine and mechanistically related disease” (Bristol-Myers Squibb Company, priority 2001, dated 2005)
